The text below walks through data of patent US11959083B2, “Immunosuppression-reverting oligonucleotides inhibiting the expression of CD39” (Secarna Pharmaceuticals GmbH & Co. KG, priority 2016, dated 2024).

The term IC50 denotes the concentration that inhibits the measured activity by half.

Common to all, as to format: cell-based, human
Data set [1] concerns hCD39 mRNA. Put plainly: hCD39 mRNA knockdown efficacy screen in A-172 cells (single dose, gymnotic delivery, QuantiGene Singleplex). As to conditions: 10 μM, 3 days; for Residual hCD39 mRNA expression relative to untreated cells (set as 1): third screening round; for Mean hCD39 mRNA expression (relative to untreated cells set as 1): first screening round; for Mean hCD39 mRNA expression (relative to untreated cells set as 1) / Relative hCD39 mRNA expression (compared to non-treated cells): normalized to HPRT1; for Relative hCD39 mRNA expression (compared to non-treated cells): second screening round. In short, it runs like this: (§1)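 Antisense oligonucleotides given once at 10 μM without transfection reagent (gymnotic) to HDLM-2 or A-172 cells for 3 days. hCD39 mRNA measured by QuantiGene Singleplex, normalized to HPRT1 and expressed relative to untreated cells; triplicate means.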

Data set [2] has as its system hCD39 mRNA. Put plainly: IC50 determination / concentration-dependent hCD39 mRNA knockdown in HDLM-2 cells. As to conditions: for mRNA inhibition: HDLM-2, 3 days; for IC50: HDLM-2 cells, hCD39 mRNA, 3 days. The procedure: HDLM-2 cells were treated for 3 days with the indicated concentration of the respective antisense oligonucleotide. Residual hCD39 expression is depicted compared to untreated control cells. hCD39 mRNA expression values were normalized to expression of the housekeeping gene HPRT1.
The antisense oligonucleotide A04040H (SEQ ID No. 3) that had shown potent activity in the first and second screening round was used as reference. HDLM-2 cells treated for 3 days with the indicated concentrations of the respective antisense oligonucleotide. hCD39 mRNA expression values were normalized to expression of the housekeeping gene HPRT1. Residual hCD39 mRNA expression relative to untreated cells (set as 100) is depicted. Depicted is the mean of triplicate wells+/−SD.
In a second experiment the concentration-dependency of effects and the IC50 values of hCD39 antisense oligonucleotides A04010H (SEQ ID No.14), A04016H (SEQ ID No.20), A04017H (SEQ ID No.21), A04020H (SEQ ID No. 24) and A04026H (SEQ ID No.30) were tested. […] HDLM-2 cells were treated with titrated amounts of the respective antisense oligonucleotide (concentrations: 10 μM, 3.3 μM, 1.1 μM, 370 nM, 120 nM, 41 nM, 14 nM, 4.5 nM). hCD39 mRNA expression was analyzed after three days of treatment. FIG. 5 and Table 9 depicts the concentration-dependent reduction of hCD39 mRNA expression by the selected hCD39 antisense oligonucleotides.
The hCD39 antisense oligonucleotides A04051H (SEQ ID No.88), A04052H (SEQ ID No.89), A04053H ([…]), A04056H (SEQ ID No.92), A04059H (SEQ ID No.94), A04060H (SEQ ID No.95), and A04061H (SEQ ID No.96) had shown potent single-dose activity in both HDLM-2 and A-172 cells. […] The antisense oligonucleotide A04040H that had shown potent activity in the first screening round was used as reference. hCD39 mRNA expression was analyzed after 3 days of treatment. FIG. 7 depicts the concentration-dependent reduction of hCD39 expression by hCD39 antisense oligonucleotides.

Data set [3] relates to hCD39 mRNA. Put plainly: hCD39 mRNA knockdown efficacy screen in HDLM-2 cells (single dose, gymnotic delivery, QuantiGene Singleplex). More on the design: key to Relative hCD39 mRNA expression (compared to non-treated cells): *: values are below detection limit. As to conditions: 10 μM, 3 days; for Residual hCD39 mRNA expression relative to untreated cells (set as 1): third screening round; for Mean hCD39 mRNA expression normalized to HPRT1 relative to untreated control = 1: first screening round; for Relative hCD39 mRNA expression (compared to non-treated cells): second screening round, normalized to HPRT1. Put shortly:
as §1

Setting [4] is: third screening round (Table 12).
The mark [5] stands for this setting: second screening round (Table 9).

l = locked nucleic acid (LNA); d = 2'-deoxy (DNA)

Regarding “+G*+T*+T*T*G*T*G*T*G*A*G*A*G*C*+T (antisense GTTTGTGTGAGAGCT; sugars from the 5' end l3 d11 l1, all phosphorothioate, methylation of C not given here) [A04061H]”, the “Residual hCD39 mRNA expression relative to untreated cells (set as 1)” value came out at 0.10 with hCD39 mRNA [1] and 0.01 in the data set with hCD39 mRNA [3]. Further, the mRNA inhibition is reported as 0.00% with hCD39 mRNA [2] (4 nM, Table 12); 0.00% with hCD39 mRNA [2] (12 nM, Table 12); 19.90% with hCD39 mRNA [2] (40 nM, Table 12); 69.28% with hCD39 mRNA [2] (110 nM, Table 12); 92.28% in the data set on hCD39 mRNA [2] (330 nM, Table 12); 97.43% with hCD39 mRNA [2] (1000 nM, Table 12). The half-inhibitory concentration (IC50) in the data set on hCD39 mRNA [2] (setting [4]) worked out at 66.8 nM.
For the substance “+G*+A*+T*A*G*T*T*T*C*C*A*A*T*+A*+C*+C (antisense GATAGTTTCCAATACC; sugars from the 5' end l3 d10 l3, all phosphorothioate, methylation of C not given here) [A04026H]”, the “Mean hCD39 mRNA expression (relative to untreated cells set as 1)” value in the data set with hCD39 mRNA [1] is 0.07. Further, the “Relative hCD39 mRNA expression (compared to non-treated cells)” value is given as 0.08 with hCD39 mRNA [1] and 0.03 in the data set with hCD39 mRNA [3]. The mRNA inhibition in the data set with hCD39 mRNA [2] (0.0045 μM, Table 9) was 29.98%; in the data set with hCD39 mRNA [2] (0.013 μM, Table 9), 29.02%; in the data set on hCD39 mRNA [2] (0.04 μM, Table 9), 54.32%; in the data set on hCD39 mRNA [2] (0.12 μM, Table 9), 77.36%; in the data set with hCD39 mRNA [2] (0.4 μM, Table 9) it was 92.99%; in the data set on hCD39 mRNA [2] (1.1 μM, Table 9), 96.69%. Moreover, the mRNA inhibition came out at 99.20% in the data set on hCD39 mRNA [2] (3.3 μM, Table 9) and 98.59% in the data set with hCD39 mRNA [2] (10 μM, Table 9). Further, the IC50 in the data set with hCD39 mRNA [2] (setting [5]) worked out at 61.5 nM. Also, the “Mean hCD39 mRNA expression normalized to HPRT1 relative to untreated control = 1” value with hCD39 mRNA [3] turned out to be 0.03.
Take “+A*+G*+A*G*T*G*C*C*T*G*A*T*C*+C*+T*+T (antisense AGAGTGCCTGATCCTT; sugars from the 5' end l3 d10 l3, all phosphorothioate, methylation of C not given here) [A04051H]”: the entries for the “Residual hCD39 mRNA expression relative to untreated cells (set as 1)” value with hCD39 mRNA [1] and with hCD39 mRNA [3] were 0.34 and 0.02, respectively. Also, the mRNA inhibition in the data set with hCD39 mRNA [2] (0.45 nM, Table 12) was 30.83%; with hCD39 mRNA [2] (1.3 nM, Table 12), 15.36%; in the data set with hCD39 mRNA [2] (4 nM, Table 12), 23.62%; with hCD39 mRNA [2] (12 nM, Table 12), 23.14%; in the data set on hCD39 mRNA [2] (40 nM, Table 12), 43.66%; with hCD39 mRNA [2] (110 nM, Table 12), 70.34%. In addition, the mRNA inhibition in the data set on hCD39 mRNA [2] (330 nM, Table 12) is recorded as 86.77%; in the data set with hCD39 mRNA [2] (1000 nM, Table 12) it was 92.82%. Moreover, it took 69 nM to reach half-maximal inhibition in the data set with hCD39 mRNA [2] (setting [4]) (IC50).
In the case of “+G*+A*G*T*G*C*C*T*G*A*T*C*C*+T*+T (antisense GAGTGCCTGATCCTT; sugars from the 5' end l2 d11 l2, all phosphorothioate, methylation of C not given here) [A04010H]”, in the data set on hCD39 mRNA [1], the “Mean hCD39 mRNA expression (relative to untreated cells set as 1)” value is 0.10. Moreover, the entries for the “Relative hCD39 mRNA expression (compared to non-treated cells)” value with hCD39 mRNA [1] and in the data set with hCD39 mRNA [3] were 0.11 and 0.15, respectively. Besides, the mRNA inhibition with hCD39 mRNA [2] (0.0045 μM, Table 9) is 20.11%; in the data set with hCD39 mRNA [2] (0.013 μM, Table 9), 24.68%; with hCD39 mRNA [2] (0.04 μM, Table 9), 52.80%; in the data set with hCD39 mRNA [2] (0.12 μM, Table 9), 76.16%; in the data set with hCD39 mRNA [2] (0.4 μM, Table 9) it was 90.86%; in the data set on hCD39 mRNA [2] (1.1 μM, Table 9), 95.99%. The mRNA inhibition in the data set on hCD39 mRNA [2] (3.3 μM, Table 9) is listed as 98.10%; in the data set with hCD39 mRNA [2] (10 μM, Table 9) it was 98.77%. Further, in the data set with hCD39 mRNA [2] (setting [5]), the IC50 is 51.6 nM. Moreover, the “Mean hCD39 mRNA expression normalized to HPRT1 relative to untreated control = 1” value in the data set on hCD39 mRNA [3] is given as 0.17.
For the substance “+G*+T*+T*T*G*T*G*T*G*A*G*A*G*C*+T*+T*+T (antisense GTTTGTGTGAGAGCTTT; sugars from the 5' end l3 d11 l3, all phosphorothioate, methylation of C not given here) [A04056H]”, the “Residual hCD39 mRNA expression relative to untreated cells (set as 1)” value with hCD39 mRNA [1] was found to be 0.09; with hCD39 mRNA [3], 0.01. Further, the mRNA inhibition in the data set on hCD39 mRNA [2] (4 nM, Table 12) was 13.97%; in the data set on hCD39 mRNA [2] (12 nM, Table 12), 37.12%; with hCD39 mRNA [2] (40 nM, Table 12) it was 69.95%; in the data set on hCD39 mRNA [2] (110 nM, Table 12), 91.83%; in the data set with hCD39 mRNA [2] (330 nM, Table 12), 97.52%; in the data set with hCD39 mRNA [2] (1000 nM, Table 12), 98.49%. The same substance yielded an IC50 in the data set on hCD39 mRNA [2] (setting [4]) of 20.2 nM.
Regarding “+C*+T*+T*G*A*A*C*A*C*T*G*C*+G*+A*+T (antisense CTTGAACACTGCGAT; sugars from the 5' end l3 d9 l3, all phosphorothioate, methylation of C not given here) [A04017H]”, in the data set on hCD39 mRNA [1], the “Mean hCD39 mRNA expression (relative to untreated cells set as 1)” value was 0.11. Also, the “Relative hCD39 mRNA expression (compared to non-treated cells)” value in the data set with hCD39 mRNA [1] and in the data set with hCD39 mRNA [3] was 0.11 throughout. For the same substance, the mRNA inhibition in the data set with hCD39 mRNA [2] (0.0045 μM, Table 9) came to 33.85%; in the data set with hCD39 mRNA [2] (0.013 μM, Table 9), 49.62%; in the data set with hCD39 mRNA [2] (0.04 μM, Table 9), 62.92%; in the data set on hCD39 mRNA [2] (0.12 μM, Table 9), 79.03%; in the data set with hCD39 mRNA [2] (0.4 μM, Table 9) it was 91.63%; with hCD39 mRNA [2] (1.1 μM, Table 9), 97.05%. Moreover, the mRNA inhibition in the data set with hCD39 mRNA [2] (3.3 μM, Table 9) was determined as 98.95%; in the data set with hCD39 mRNA [2] (10 μM, Table 9), 99.37%. Moreover, the IC50 in the data set on hCD39 mRNA [2] (setting [5]) was determined as 33.1 nM. In addition, the “Mean hCD39 mRNA expression normalized to HPRT1 relative to untreated control = 1” value in the data set with hCD39 mRNA [3] is on record as 0.11.
In the case of “+C*+A*+G*T*C*A*A*T*C*C*T*G*C*+T*+C*+A (antisense CAGTCAATCCTGCTCA; sugars from the 5' end l3 d10 l3, all phosphorothioate, methylation of C not given here) [A04039H]”, the “Mean hCD39 mRNA expression (relative to untreated cells set as 1)” value with hCD39 mRNA [1] was found to be 0.27. For the same substance, the “Relative hCD39 mRNA expression (compared to non-treated cells)” value in the data set on hCD39 mRNA [1] is given as 0.14; in the data set on hCD39 mRNA [3], “*”. Besides, the mRNA inhibition in the data set with hCD39 mRNA [2] (0.0045 μM, Table 8) is 11.56%; in the data set with hCD39 mRNA [2] (0.013 μM, Table 8) it was 14.30%; in the data set with hCD39 mRNA [2] (0.04 μM, Table 8), 20.47%; with hCD39 mRNA [2] (0.12 μM, Table 8), 44.03%; in the data set on hCD39 mRNA [2] (0.4 μM, Table 8), 71.25%; with hCD39 mRNA [2] (1.1 μM, Table 8), 85.22%. Moreover, the mRNA inhibition was found to be 92.53% with hCD39 mRNA [2] (3.3 μM, Table 8) and 96.54% in the data set with hCD39 mRNA [2] (10 μM, Table 8). The midpoint of inhibition in the data set on hCD39 mRNA [2] (first screening round (Table 8)), the IC50, lay at 177 nM. In addition, in the data set on hCD39 mRNA [3], the “Mean hCD39 mRNA expression normalized to HPRT1 relative to untreated control = 1” value is 0.06.
